# Legend:
# [1] = molecular target: T1, eqBuChE (Equus caballus, UniProt P81908); test: biochemical; conditions: means±SEM of at least three experiments
# T1 construct: purchased Sigma-Aldrich
# [2] = molecular target: T2, human butyrylcholinesterase (hBuChE) (Homo sapiens, UniProt P06276); test: biochemical; conditions: for IC50: means±SEM of at least three experiments; for inhibition at 1 µM: inhibitor concentration 1 μM, read-out: hBuChE % inh.
# T2 construct: from human plasma was from Vivonics (Bedford, MA, USA); purchased Vivonics (Bedford, MA, USA); host or cells: human plasma
# [3] = molecular target: T3, eeAChE (Electrophorus electricus, UniProt O42275); test: Cholinesterase inhibition, Ellman's protocol, eeAChE; type: biochemical; conditions: read-out: eeAChE % inh.
# T3 construct: purchased Sigma-Aldrich
# Description: In vitro pharmacological assays.
# The in vitro inhibitory activity toward cholinesterases (eeAChE, eqBuChE,
# The target compounds were tested for their inhibitory potency against cholinesterases using
# Ellman’s protocol[32] modified for 96-well microplates.
# The stock solutions of the
# target compounds were prepared in DMSO and diluted with water, giving the desired final
# concentrations. The enzymes were prepared as 5 U/mL aqueous stock solutions and diluted
# (AChE or BuChE) were added to the reaction mixture in the wells, containing 25 μL of the
# target compound (in case of blank samples – water or water/DMSO mixture), 200 μL of 0.1
# M phosphate buffer (pH = 8.0) and 20 μL of 5,5'-dithiobis-(2-nitrobenzoic acid) DTNB
# All those reagents were preincubated for 5 min at 25 °C for the reactions with the
# animal enzymes (eeAChE or eqBuChe) and 36 °C for the human enzyme ( hBuChE) tests. The
# enzymatic reaction was initiated by the addition of 20 μL of substrate acetylthiocholine iodide
# using the EnSpire multimode microplate reader (PerkinElmer, Waltham, MA, USA). Target
# compounds were tested at the screening concentrations of 10 μM or 1 µM for inhibitory
# potencies towards animal cholinesterases or human enzyme, respectively. Percent of enzyme
# inhibition was calculated based on the formula 100 -(S/B)x100, where S and B were the
# respective enzyme activities with and without the test compound, respectively. Compounds
# with the enzyme inhibitory activities at 10 μM better than 50% ( eeAChE or eqBuChe) and at
# were based on the absorbance measured at seven different inhibitor concentrations, then
# percentages of enzymes’ inhibition were plotted against the applied inhibitor concentrations
# using nonlinear regression (GraphPad Prism 9; GraphPad Software, San Diego, CA, USA).
# All the experiments were performed in
# a %inh. at an inhibitor concentration of 10 µM
# [4] = molecular target: T4, mGAT1 (Mus musculus, UniProt P31648); test: [3H]GABA uptake assay, mGAT1; type: cell-based; conditions: GABA uptake assay; read-out: mGAT1 IC50
# [5] = molecular target: T5, mGAT2 (Mus musculus, UniProt P31651); test: [3H]GABA uptake assay, mGAT2; type: cell-based; conditions: GABA uptake assay; read-out: mGAT2 IC50
# T5 sequence (P31651 1-614): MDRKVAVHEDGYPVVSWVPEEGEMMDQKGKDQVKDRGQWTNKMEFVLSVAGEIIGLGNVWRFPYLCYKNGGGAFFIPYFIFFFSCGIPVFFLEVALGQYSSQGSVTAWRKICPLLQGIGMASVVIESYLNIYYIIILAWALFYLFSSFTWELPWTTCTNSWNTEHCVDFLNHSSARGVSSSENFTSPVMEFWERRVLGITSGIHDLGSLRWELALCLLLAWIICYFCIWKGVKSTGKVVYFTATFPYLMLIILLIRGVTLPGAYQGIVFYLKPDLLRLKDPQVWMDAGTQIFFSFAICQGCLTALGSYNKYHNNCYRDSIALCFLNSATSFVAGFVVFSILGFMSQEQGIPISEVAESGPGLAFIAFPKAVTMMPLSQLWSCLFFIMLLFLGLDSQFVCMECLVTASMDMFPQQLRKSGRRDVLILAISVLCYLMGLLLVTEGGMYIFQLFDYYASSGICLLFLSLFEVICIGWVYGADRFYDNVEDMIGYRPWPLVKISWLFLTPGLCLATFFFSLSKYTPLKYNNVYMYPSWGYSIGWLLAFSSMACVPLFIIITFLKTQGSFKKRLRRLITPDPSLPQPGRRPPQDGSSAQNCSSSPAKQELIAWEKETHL
# [6] = molecular target: T6, mGAT3 (Mus musculus, UniProt P31649); test: [3H]GABA uptake assay, mGAT3; type: cell-based; conditions: GABA uptake assay; read-out: mGAT3 IC50
# T6 sequence (P31649 1-602): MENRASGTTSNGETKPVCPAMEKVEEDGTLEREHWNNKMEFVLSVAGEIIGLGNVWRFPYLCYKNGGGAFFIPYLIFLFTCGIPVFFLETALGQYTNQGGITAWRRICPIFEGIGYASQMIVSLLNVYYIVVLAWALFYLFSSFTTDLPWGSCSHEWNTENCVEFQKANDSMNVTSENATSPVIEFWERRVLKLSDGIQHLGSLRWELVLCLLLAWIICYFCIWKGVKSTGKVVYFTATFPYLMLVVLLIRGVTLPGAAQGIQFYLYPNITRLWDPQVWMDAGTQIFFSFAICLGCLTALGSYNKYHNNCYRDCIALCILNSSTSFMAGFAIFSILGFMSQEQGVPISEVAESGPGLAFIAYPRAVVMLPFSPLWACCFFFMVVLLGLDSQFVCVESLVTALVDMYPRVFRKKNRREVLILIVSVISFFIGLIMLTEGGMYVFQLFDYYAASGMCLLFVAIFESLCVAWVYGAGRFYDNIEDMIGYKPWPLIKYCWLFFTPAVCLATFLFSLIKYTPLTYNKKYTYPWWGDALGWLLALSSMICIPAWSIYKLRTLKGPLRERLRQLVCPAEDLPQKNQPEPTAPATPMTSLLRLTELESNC
# [7] = molecular target: T7, mGAT4 (Mus musculus, UniProt P31650); test: [3H]GABA uptake assay, mGAT4; type: cell-based; conditions: GABA uptake assay; mGAT4 corresponds to GAT3; read-out: mGAT4 IC50
# T7 sequence (P31650 1-627): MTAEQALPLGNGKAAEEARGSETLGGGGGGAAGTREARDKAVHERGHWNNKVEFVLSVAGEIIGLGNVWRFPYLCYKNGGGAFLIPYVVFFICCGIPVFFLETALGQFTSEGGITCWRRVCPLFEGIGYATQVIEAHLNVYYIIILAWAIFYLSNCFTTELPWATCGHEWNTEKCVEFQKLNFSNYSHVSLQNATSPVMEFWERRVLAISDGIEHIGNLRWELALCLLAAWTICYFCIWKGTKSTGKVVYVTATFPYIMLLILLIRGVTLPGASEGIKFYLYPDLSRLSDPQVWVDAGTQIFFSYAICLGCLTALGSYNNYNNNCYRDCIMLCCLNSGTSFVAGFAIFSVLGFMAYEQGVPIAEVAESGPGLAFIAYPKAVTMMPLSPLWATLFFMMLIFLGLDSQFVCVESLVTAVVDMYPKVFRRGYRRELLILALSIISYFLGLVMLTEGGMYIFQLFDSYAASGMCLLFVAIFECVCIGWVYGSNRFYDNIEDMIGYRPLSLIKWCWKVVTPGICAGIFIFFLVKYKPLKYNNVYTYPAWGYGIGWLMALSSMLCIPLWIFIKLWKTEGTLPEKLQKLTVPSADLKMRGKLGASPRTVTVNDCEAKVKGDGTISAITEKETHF
# [8] = molecular target: T4, mGAT1; test: MS Binding Assay with NO 711 as marker; conditions: for Ki: MS Binding Assay, NO 711 marker, read-out: pKi ± SEM toward mGAT1 (converted); for percent of remaining NO711 binding, mGAT1: 100 μM inhibitor
# [9] = molecular target: T8, human serotonin 5-HT6 receptor (Homo sapiens, UniProt P50406); test: cAMP 5-HT6 functional assay; type: cell-based; conditions: % of maximal antagonist response (SB258585 10^-5M); 22 nM serotonin
# T8 construct: host or cells: 1321N1
# Description: Functional assays for 5-HT6 receptor
# Test compounds were dissolved in dimethyl sulfoxide (DMSO) at a concentration of 10 mM.
# Serial dilutions were prepared in a 96-well microplate in assay buffer, and 8 concentrations
# were tested. For the 5-HT6, adenylyl cyclase activity was monitored using cryopreserved
# cells were resuspended in stimulation buffer (HBSS, 5 mM HEPES, 0.5 IBMX, and 0.1%
# BSA at pH 7.4) at 2x10^5 cells/ml. The same volume (10 μl) of cell suspension was added to
# the tested compounds. Samples were loaded onto a white opaque half-area 96-well
# reference agonist for the 5-HT6 receptor. The agonist and antagonist were added
# simultaneously. Cell stimulation was performed for 30 minutes at room temperature. After
# incubation, cAMP measurements were performed with homogeneous TR-FRET immunoassay
# using the LANCE Ultra cAMP kit (PerkinElmer, USA). The volume of 10 μl of EucAMP
# Tracer Working Solution and 10 μl of ULight-anti-cAMP Tracer Working Solution were
# added, mixed, and incubated for 1 h. The TR-FRET signal was read on an EnVision
# microplate reader (PerkinElmer, USA). IC 50 and EC 50 were determined by nonlinear
# regression analysis using GraphPad Prism 9.0 software.
# [10] = tested on: Human neuroblastoma cells SH-SY5Y; test: MTT cell viability assay, SH-SY5Y; type: cell-based; conditions: 24 h, read-out: IC50 (MTT) ± SEM
# Description: (§1) Human neuroblastoma cells SH-SY5Y and mouse microglial cells SIM-A9 were used to evaluate cell viability, intracellular RONS, and malondialdehyde (MDA; CAS No. 542–78-9).
# (§2) SH-SY5y cells were cultivated in Dulbecco's modified Eagle's medium (DMEM; Biosera, Nuaille, France) supplemented with 10% fetal bovine serum (Biosera) and 1% penicillin-streptomycin antibiotic solution (Sigma-Aldrich, St. Louis, MO, USA). The culture medium for SIM-A9 cells was further supplemented with donor horse serum (Biosera). The cells were incubated at 37 °C in a CO2 incubator (BINDER CO2 incubator CB 160, Tuttlingen, Germany) and routinely passaged by trypsinization at 75 –85% confluence.
# (§3) Colorimetric Cell Viability Assay
# (§4) The toxicological indices IC 50 used in the present study were measured utilizing 3-(4,5-dimethylthiazol-2-yl)-2,5-diphenyl-tetrazolium bromide (MTT) reduction assay after (1 picture or pasted object on this page, not shown here)
# (§5) 24 h incubation with tested compounds. […]
# (§6) incubation, the cultivation medium containing serially diluted substances was aspirated and replaced with a fresh medium containing MTT at a concentration of 0.5 mg/mL and subsequently incubated at 37 °C for 1 h. […] Cell viability was assessed spectrophotometrically by the amount of formazan produced. Absorbance was measured at 570 nm with 650 nm reference wavelength on Spark (Tecan Group Ltd, Switzerland). […]
# [11] = tested on: mouse microglial cells SIM-A9; test: MTT cell viability assay, SIM-A9; type: cell-based; conditions: SIM-A9, 24 h; read-out: IC50 (MTT) ± SEM
# Description: as §1, §2, §3, §4, §5, §6
# [12] = tested on: SH-SY5Y cells; test: Intracellular RONS, DCFH-DA probe, SH-SY5Y; type: cell-based, human
# [13] = tested on: SIM-A9 cells; test: Intracellular RONS, DCFH-DA probe, SIM-A9; type: cell-based, mouse
# [14] = tested on: SH-SY5Y cells; test: Intracellular O2•-, DHE probe, SH-SY5Y; type: cell-based, human
# [15] = tested on: SIM-A9 cells; test: Intracellular O2•-, DHE probe, SIM-A9; type: cell-based, mouse
# [16] = tested on: SH-SY5Y cells; test: LC-MS determination of total MDA, SH-SY5Y; type: cell-based, human
# [17] = tested on: SIM-A9 cells; test: LC-MS determination of total MDA, SIM-A9; type: cell-based, mouse
# T1 sequence (P81908 whole entry): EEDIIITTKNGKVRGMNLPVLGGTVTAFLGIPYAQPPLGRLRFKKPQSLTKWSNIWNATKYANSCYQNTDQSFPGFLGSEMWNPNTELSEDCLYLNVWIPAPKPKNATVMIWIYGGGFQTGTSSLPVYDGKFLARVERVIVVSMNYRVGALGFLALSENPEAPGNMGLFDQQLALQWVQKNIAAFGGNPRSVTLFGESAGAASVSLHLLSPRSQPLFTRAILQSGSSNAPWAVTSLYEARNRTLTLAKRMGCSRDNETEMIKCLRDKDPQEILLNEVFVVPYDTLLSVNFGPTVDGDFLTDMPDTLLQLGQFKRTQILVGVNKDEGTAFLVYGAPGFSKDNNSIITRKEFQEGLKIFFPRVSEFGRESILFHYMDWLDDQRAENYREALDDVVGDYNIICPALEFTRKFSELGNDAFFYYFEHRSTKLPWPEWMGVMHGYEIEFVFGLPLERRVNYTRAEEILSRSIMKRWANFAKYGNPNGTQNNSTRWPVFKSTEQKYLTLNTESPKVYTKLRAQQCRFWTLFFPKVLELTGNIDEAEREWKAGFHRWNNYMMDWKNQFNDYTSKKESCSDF
# T3 sequence (O42275 24-633): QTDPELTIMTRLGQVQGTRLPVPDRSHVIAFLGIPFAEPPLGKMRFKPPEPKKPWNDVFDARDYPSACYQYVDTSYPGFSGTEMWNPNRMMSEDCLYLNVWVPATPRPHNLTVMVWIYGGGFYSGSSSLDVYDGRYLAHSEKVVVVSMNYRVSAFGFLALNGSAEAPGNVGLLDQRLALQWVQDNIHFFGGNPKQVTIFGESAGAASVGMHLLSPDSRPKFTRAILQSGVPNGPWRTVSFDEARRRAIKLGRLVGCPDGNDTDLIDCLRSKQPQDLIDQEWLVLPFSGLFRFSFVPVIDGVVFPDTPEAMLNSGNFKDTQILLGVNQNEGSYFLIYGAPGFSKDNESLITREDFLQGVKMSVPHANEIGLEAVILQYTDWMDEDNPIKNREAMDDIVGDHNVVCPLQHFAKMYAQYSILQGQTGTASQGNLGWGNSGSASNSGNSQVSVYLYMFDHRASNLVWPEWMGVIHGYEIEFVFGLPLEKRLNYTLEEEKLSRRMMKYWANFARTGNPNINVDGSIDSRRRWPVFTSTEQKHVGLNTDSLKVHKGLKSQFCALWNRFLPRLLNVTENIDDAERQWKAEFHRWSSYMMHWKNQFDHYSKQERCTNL
# T2 sequence (P06276 29-602): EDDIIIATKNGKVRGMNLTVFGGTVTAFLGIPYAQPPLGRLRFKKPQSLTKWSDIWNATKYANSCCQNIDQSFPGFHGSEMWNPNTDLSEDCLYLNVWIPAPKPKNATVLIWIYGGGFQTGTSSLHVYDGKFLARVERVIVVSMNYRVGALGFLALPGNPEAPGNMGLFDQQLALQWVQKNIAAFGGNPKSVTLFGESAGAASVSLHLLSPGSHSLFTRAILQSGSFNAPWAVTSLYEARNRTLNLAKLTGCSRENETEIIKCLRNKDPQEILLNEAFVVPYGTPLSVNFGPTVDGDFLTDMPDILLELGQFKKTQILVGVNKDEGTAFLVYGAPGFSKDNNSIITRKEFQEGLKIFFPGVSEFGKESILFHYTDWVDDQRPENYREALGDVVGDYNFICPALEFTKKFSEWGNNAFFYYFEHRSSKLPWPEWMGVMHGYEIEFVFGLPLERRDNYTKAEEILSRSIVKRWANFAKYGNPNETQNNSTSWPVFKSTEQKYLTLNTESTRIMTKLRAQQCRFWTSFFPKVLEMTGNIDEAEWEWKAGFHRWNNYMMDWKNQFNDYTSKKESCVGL
# T8 sequence (P50406 whole entry): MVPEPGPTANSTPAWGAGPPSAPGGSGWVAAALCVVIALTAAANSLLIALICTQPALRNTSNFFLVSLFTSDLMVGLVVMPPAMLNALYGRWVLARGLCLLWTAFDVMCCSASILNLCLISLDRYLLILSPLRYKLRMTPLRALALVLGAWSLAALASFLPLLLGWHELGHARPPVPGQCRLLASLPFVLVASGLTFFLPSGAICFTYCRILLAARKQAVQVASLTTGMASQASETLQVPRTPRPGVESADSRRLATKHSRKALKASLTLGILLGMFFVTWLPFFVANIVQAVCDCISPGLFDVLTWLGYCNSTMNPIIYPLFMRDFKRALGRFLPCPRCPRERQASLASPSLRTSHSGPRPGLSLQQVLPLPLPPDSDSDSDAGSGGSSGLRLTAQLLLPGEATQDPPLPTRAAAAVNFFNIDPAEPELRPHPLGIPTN
structure (smiles),measurement,setting,value
O[C@H](CNCc1ccccc1)[C@H](Cc1ccccc1)NC1c2ccccc2-c2ccccc21 [Compound 1],IC50,[1],0.63 ± 0.02 µM
same,IC50,[2],0.2 µM
same,inhibition at 10 µM,[3],< 10%
same,IC50,[4],11 µM
same,IC50,[5],9.77 ± 1.82 µM
same,IC50,[6],7.08 ± 1.15 µM
same,IC50,[7],7.76 ± 1.99 µM
same,Ki,[8],49 µM
COc1ccccc1CNC[C@H](O)[C@H](Cc1ccccc1)NC1c2ccccc2-c2ccccc21 [Compound 2],IC50,[1],0.28 ± 0.01 µM
same,IC50,[2],0.27 ± 0.01 µM
same,inhibition at 10 µM,[3],< 10%
same,IC50,[4],6.31 ± 1.02 µM
same,IC50,[5],13.2 µM
same,IC50,[7],6.17 ± 0.57 µM
same,Ki,[8],33.9 µM
COc1cccc(CNC[C@H](O)[C@H](Cc2ccccc2)NC2c3ccccc3-c3ccccc32)c1 [Compound 3],IC50,[1],2.2 ± 0.1 µM
same,inhibition at 1 µM,[2],67.7%
same,inhibition at 10 µM,[3],< 10%
same,IC50,[4],7.41 ± 0.34 µM
same,IC50,[5],12 µM
same,IC50,[7],7.08 ± 0.49 µM
same,Ki,[8],30.9 µM
CC(C)(C)c1cccc(CNC[C@@H](O)[C@H](Cc2ccccc2)NC2c3ccccc3-c3ccccc32)c1 [Compound 4],IC50,[1],0.69 ± 0.04 µM
same,inhibition at 1 µM,[2],68%
same,inhibition at 10 µM,[3],< 10%
same,IC50,[4],14.8 µM
same,IC50,[5],26.3 µM
same,IC50,[6],8.91 ± 1.03 µM
same,"percent of remaining NO711 binding, mGAT1",[8],91%
O[C@@H](CNCC1CCCCC1)[C@H](Cc1ccccc1)NC1c2ccccc2-c2ccccc21 [Compound 5],IC50,[1],0.96 ± 0.03 µM
same,inhibition at 1 µM,[2],76.5%
same,inhibition at 10 µM,[3],19.9%
same,IC50,[5],10.7 µM
same,IC50,[6],11.5 µM
same,"percent of remaining NO711 binding, mGAT1",[8],72%
"COc1ccc(NS(=O)(=O)c2ccc(I)cc2)cc1N1CCN(C)CC1 [SB258585, reference compound]",5-HT6 antagonist mode E max %,[9],100%
CC(C)(C)OO [tBHP],IC50,[10],19.9 ± 1.35 µM
same,IC50,[11],60.4 ± 3.54 µM
same,"intracellular RONS, fold vs untreated control","[12]; conc. = IC50, 1 h",1.25 fold
same,"intracellular RONS, fold vs untreated control","[12]; conc. = IC50, 4 h",1.11 fold
same,intracellular RONS change,"[12]; conc. = IC50, 24 h",decrease of RONS
same,"intracellular RONS, fold higher","[12]; conc. = ½ IC50, 1 h",1.12 fold
same,"intracellular RONS, times higher","[13]; conc. = IC50, 1 h",1.21 fold
same,"intracellular RONS, times lower","[13]; conc. = IC50, 24 h",1.30 fold
same,"intracellular O2•-, times higher","[14]; IC50, 1 h",1.25 fold
same,"intracellular O2•-, times higher","[14]; IC50, 4 h",1.23 fold
same,"intracellular O2•-, fold higher","[14]; IC50, 24 h",1.11 fold
same,"intracellular O2•-, times higher","[14]; ¼ IC50, 1 h",1.10 fold
same,"intracellular O2•-, times higher","[14]; ¼ IC50, 4 h",1.10 fold
same,"intracellular O2•-, times higher","[14]; ½ IC50, 1 h",1.22 fold
same,"intracellular O2•-, times higher","[14]; ½ IC50, 4 h",1.16 fold
same,"intracellular O2•-, fold higher","[14]; ½ IC50, 24 h",1.10 fold
same,"intracellular O2•-, times higher","[15]; IC50, 1 h",1.11 fold
same,"intracellular O2•-, times higher","[15]; IC50, 4 h",1.10 fold
same,"intracellular O2•-, times higher","[15]; IC50, 24 h",1.25 fold
same,"intracellular O2•-, fold higher","[15]; ¼ IC50, 24 h",1.27 fold
same,"intracellular O2•-, times higher","[15]; ½ IC50, 1 h",1.10 fold
same,"intracellular O2•-, times higher","[15]; ½ IC50, 4 h",1.10 fold
same,"intracellular O2•-, times higher","[15]; ½ IC50, 24 h",1.32 fold
same,"MDA level, times higher","[16]; IC50, 1 h",1.45 fold
same,"MDA level, fold higher","[16]; IC50, 4 h",1.45 fold
same,"MDA level, times higher","[16]; IC50, 24 h",1.61 fold
same,"MDA level, times higher","[16]; ¼ IC50, 1 h",1.23 fold
same,"MDA level, times higher","[16]; ¼ IC50, 24 h",1.11 fold
same,"MDA level, times higher","[16]; ½ IC50, 1 h",1.18 fold
same,"MDA level, fold higher","[16]; ½ IC50, 4 h",1.18 fold
same,"MDA level, times higher","[16]; ½ IC50, 24 h",1.20 fold
same,"MDA level, times higher","[17]; IC50, 4 h",1.27 fold
same,"MDA level, fold higher","[17]; IC50, 24 h",1.45 fold
same,"MDA level, times higher","[17]; highest concentration (IC50), 1 h",1.18 fold
same,"MDA level, times higher","[17]; ¼ IC50, 4 h",1.16 fold
same,"MDA level, times higher","[17]; ½ IC50, 4 h",1.18 fold
same,"MDA level, fold higher","[17]; ½ IC50, 24 h",1.15 fold

# From publication PMC11796312, “Multifunctional, Fluorene‐Based Modulator of Cholinergic and GABAergic Neurotransmission as a Novel Drug Candidate for Palliative Treatment of Alzheimer's Disease” (Angewandte Chemie (International Ed. in English), 2024)
